Results: patent US5004756A, “Anti-cancer activity potentiator” (priority 1988, dated 1991)
Converted amounts (≈) assume the structure as drawn.

Columns and labels:
[1] = test system: clinically isolated human cancer cells (lung adenocarcinoma, lung squamous cell carcinoma, osteosarcoma, ovarian carcinoma); test: Anti-tumor activity on clinically isolated human cancer cells, morphological changes (A-I Part 2); format: cell-based; conditions: 0.2 μg/ml
Method: Lung adenocarcinoma, lung squamous cell carcinoma, osteosarcoma and ovarian carcinoma were selected as clinically isolated human cancer cells, and the anti-tumor activities of various drugs were examined. Specifically, various tumor tissues were individually cut to thin pieces by a razor, and by washing in saline by using a 1 mm mesh, the connective tissues were removed. The resulting solution was centrifuged at 1000 rpm for 1 minute to remove necrotizing substances. Washing with saline gave tumor cells.
They were incubated at 37° for 4 to 8 hours. Thereafter, pumping was carried out to disperse the tissue pieces. Then, centrifugation at 1000 rpm for 5 minutes, cell coating and Giemsa staining were performed. The anti-tumor activity of each drug was examined on the basis of observation of the morphological changes of the tumor cells under a microscope.
The experiment was conducted on two examples of each tumor cells (total 8 examples).

[2] = test system: V79/S; test: Anti-cancer activity potentiating action, colony formation, V79/S parent cells (A-III); format: cell-based, Chinese hamster; conditions: for IC50: Cricetulus griseus
Method: (§1) The anti-cancer activity potentiating action of the malate of formula (I) was examined using Chinese hamster cells (sensitive cell line V79/S and ADM-resistant cell line V79/ADM), human hepatoma cells (sensitive cell line PLC/S and colchicin-resistant cell line PLC/Col) and mouse leukemia cells (sensitive cell line L5178Y/S) and aclarubicin-resistant cell line L5178Y/ACR).
(§2) Of these tumor cells, the sensitive cells (400 cells) and the resistant cells (600 cells) were each incubated in 10 ml of Eagle's MEM medium containing 10% bovine serum for 24 hours, and then each of the test drugs indicated in Table 6 was added. Thereafter, the incubation was carried out for 9 days. The concentration (IC50 : micrograms/ml) of the test drug required to inhibit 50% of the colony formation (proliferation) of the tumor cells was calculated.
(§3) (A) Chinese hamster V79 cells
(§4) As anti-cancer agents, there were used adriamycin (ADM), aclarubicin (ACR), actinomycin D (ACD), 5-fluorouracil (5-FU), cytarabin (Ara-C), cisplatin (CDDP), methotrexate (MTX), mitomycin C (MMC), nimustine (ACNU), mitoxantrone, etoposide ([…]), vincristine (VCR), bleomycin (BLM) and peplomycin (PEP). For the sensitive cells, the anti-cancer agents were used in combination with 10 micrograms/ml of the malate of formula (I), and for the resistant cells, the anti-cancer agents were used in combination with the malate of formula (I) 3 micrograms/ml, 5 micrograms/ml, and 10 micrograms/ ml.

[3] = test system: V79/ADM; test: Anti-cancer activity potentiating action, colony formation, V79/ADM resistant cells (A-III); format: cell-based, Chinese hamster; conditions: V79/ADM; for IC50: Cricetulus griseus
Method: as §1, §2, §3, §4

[4] = test system: Meth-A; test: Tumor proliferation inhibiting activity, Meth-A (A-IV); format: in vivo, BALB/c rats; conditions: MMC 1.0 mg/kg/day, days 1-5
Method: Female BALB/c rats (7 weeks old), 8 per group, were used. Tumor cells (Meth-A) induced by methyl cholanthrene were transplanted intraperitoneally to the rats, and then the malate of formula (I) was administered intraperitoneally to the rats. The proliferation inhibiting activity of the malate was examined by comparing the weight of the tumor cells with that of the tumor cells in the non-treated control group.
The dose of the malate of formula (I) was 1.25, 2.5, 5.0, and 10.0 mg/kg/day. Mitomycin C (MMC) was administered as another anti-cancer agent. The weight of the tumor cells was measured, and the proliferation inhibiting activity was determined.
The weight (g) of the tumor with respect to that of the tumor in the control group (T/C, %) after 16 days from the transplantation of the tumor cells, and the number of surviving rats after 16 days are shown in Table 8.

[5] = test system: human tumor cells (muscle fibrosarcoma HT-1080); test: Anti-cancer activity potentiating action in nude mice with HT-1080 (A-VI); format: in vivo, human tumor in ICR nude mice; conditions: MMC 3 mg/kg, days 5, 10, 15, 20; day 36
Method: ICR nude mice, 6 per group, were used, and the experiment was conducted substantially in accordance with the procedure described in A-V.
As tumor cells, human tumor cells (muscle fibrosarcoma HT-1080) were used, and 5 days after the transplantation, drug administration was started.
The administration was further performed every 5 days from the day of starting the administration, and the total number of administrations was therefore 4.
Mitomycin C (MMC) was tested by the same way as above.
Thirty-six days after the transplantation of the tumor, a tumor mass was extracted and its weight was measured. From the difference of the weight of the tumor from the non-treated control group, the tumor growth inhibition ratio (%) was calculated.

[6] = test system: V79/S; test: Colony formation (proliferation) inhibition, sensitive Chinese hamster cells (A-I Part 1); format: cell-based; conditions: V79/S; 9 days; Table 1
Method: (§5) Sensitive cell line V79/S and ADM-resistant cell line V79/ADM of the Chinese hamster were used, and sensitive cell line PLC/S and cholchicin-resistant cell line PLC/Col, as human hepatoma cells.
(§6) The sensitive cell lines (400 cells) or the resistant cell lines (600 cells) were each incubated for 24 hours in 10 ml of Eagle's MEM medium containing 10% bovine serum. Each of the drugs indicated in Table 1 below was dissolved in ethanol, and 50 microliters of the resulting solution was added to the medium. The incubation was further carried out for 9 days. The concentration of the drug which inhibits 50% of the colony formation (proliferation) of the tumor cells was calculated.
(§7) V79/S and V79/ADM were tested by using all of the drugs described above, but PLC/S and PLC/Col were tested by using only the malate of formula (I), adriamycin and peplomycin.
(§8) The concentrations (micrograms/ml) required to inhibit 50% of the proliferation of the tumor cells, expressed by IC50, are shown in Table 1.

[7] = test system: V79/ADM; test: Colony formation (proliferation) inhibition, ADM-resistant Chinese hamster cells (A-I Part 1); format: cell-based; conditions: V79/ADM; 9 days; Table 1
Method: as §5, §6, §7, §8

[8] = test system: PLC/S; test: Colony formation (proliferation) inhibition, sensitive human hepatoma cells (A-I Part 1); format: cell-based; conditions: PLC/S; 9 days; Table 1
Method: as §5, §6, §7, §8

[9] = test system: PLC/Col; test: Colony formation (proliferation) inhibition, colchicin-resistant human hepatoma cells (A-I Part 1); format: cell-based; conditions: PLC/Col; 9 days; Table 1
Method: as §5, §6, §7, §8

[10] = test system: PLC/S; test: Anti-cancer activity potentiating action, colony formation, PLC/S parent cells (A-III); format: cell-based, human; conditions: PLC/S; with compound (I) 5 μg/ml
Method: as §1, §2
(§9) As anti-cancer agents, adriamycin (ADM) and peplomycin (PEP) were used in combination with the malate of formula (I) (5 micrograms/ml).

[11] = test system: PLC/Col; test: Anti-cancer activity potentiating action, colony formation, PLC/Col resistant cells (A-III); format: cell-based, human; conditions: PLC/Col; with compound (I) 5 μg/ml
Method: as §1, §2, §9

[12] = test system: B16 melanoma cells; test: Life prolongation of BDF1 mice with B16 melanoma (A-II Part 1); format: in vivo, mouse (male BDF1); conditions: 0.45 mg/kg i.p., three times every 4 days
Method: Three to eight male BDF1 mice having a body weight of 20±3 g were used, and B16 melanoma cells were selected as tumor cells. The melanoma cells were homogenized, and the homogenate was transplanted subcutaneously to the mice in an amount of 0.5 ml/mouse. After 7 days, the malate of formula (I) in accordance with this invention and an anti-cancer agent, neocartinostatin (NCS), were intraperitoneally administered either singly or in combination three times every 4 days in a dose of 5 mg/kg and 0.45 mg/kg for each time. The life prolonging rate of the mice was determined by the treated group/non-treated control group (T/C %).

[13] = V79/S, with compound (I) 10 μg/ml

**Q.** Which results are given for `CO[C@@]12[C@H](COC(N)=O)C3=C(C(=O)C(C)=C(N)C3=O)N1C[C@@H]1N[C@@H]12` [MMC, mitomycin C]?
**A.** Efficacy ratio (rated significant by Fisher's test) [1]: 0/8; IC50 ([2]; read-out: IC50 in combination with compound (I)): 0.01 µg/mL; IC50 ([2]; V79/S, alone, Table 6, read-out: IC50, anti-cancer agent alone): 0.02 µg/mL; Potentiation activity [2, 13]: 2.0 times; IC50 ([3]; alone, Table 6, read-out: IC50, anti-cancer agent alone): 0.057 µg/mL; IC50 ([3]; with compound (I) 5 μg/ml, read-out: IC50 in combination with compound (I)): 0.011 µg/mL; Potentiation activity ([3]; with compound (I) 5 μg/ml): 5.20 times; Number of surviving animals ([4]; 16 days later): 8/8; T/C (tumor weight) ([4]; day 16): 21%; Tumor weight mean ± S.D. ([4]; day 16): 0.347 ± 0.185 g; Tumor growth inhibition ratio [5]: 47.0%; Tumor weight [5]: 1.92 ± 0.27

**Q.** Which results are given for `Cc1c(N)nc([C@H](CC(N)=O)NC[C@H](N)C(N)=O)nc1C(=O)N[C@H](C(=O)N[C@H](C)[C@@H](O)[C@H](C)C(=O)N[C@H](C(=O)NCCc1nc(-c2nc(C(=O)NCCCN[C@@H](C)c3ccccc3)cs2)cs1)[C@@H](C)O)[C@@H](O[C@@H]1O[C@@H](CO)[C@@H](O)[C@H](O)[C@@H]1O[C@H]1O[C@H](CO)[C@@H](O)[C@H](OC(N)=O)[C@@H]1O)c1c[nH]cn1` [PEP, peplomycin]?
**A.** IC50 [6]: 1.95 µg/mL (≈ 1.32 µM); IC50 [7]: 0.48 µg/mL (≈ 0.326 µM); IC50 [8]: 0.24 µg/mL (≈ 0.163 µM); IC50 [9]: 0.19 µg/mL (≈ 0.129 µM); IC50, anti-cancer agent alone ([2]; V79/S, alone, Table 6): 1.95 µg/mL; IC50 in combination with compound (I) [2, 13]: 0.0165 µg/mL; Potentiation activity [2, 13]: 118 times; IC50, anti-cancer agent alone ([3]; alone, Table 6): 0.48 µg/mL; IC50 in combination with compound (I) ([3]; with compound (I) 3 μg/ml): 0.0157 µg/mL; Potentiation activity ([3]; with compound (I) 3 μg/ml): 30.5 times; Potentiation activity [10]: 3.0 times; Potentiation activity [11]: 6.3 times

B1: neocartinostatin (protein, UniProt P0A3R9 35-147, looked up)
Neocarzinostatin: AAPTATVTPSSGLSDGTVVKVAGAGLQAGTAYDVGQCAWVDTGVLACNPADFSSVTADANGSASTSLTVRRSFEGFLFDGTRWGTVDCTTAACQVGLSDAAGNGPEGVAISFN
**Q.** B1 was tested. Which “T/C (life prolonging rate at M.S.T.)” value [12] did it give?
**A.** 135%
